tested on: LTD4 (contractile responses of guinea-pig trachea); assay: LTD4 antagonism in guinea-pig trachea (in vitro test, isolated tracheal spiral strip); assay type: cell-based; settings: Cavia porcellus, 0.5 h; test compound concentration 10^6 g/ml [sic], added 30 min prior to LTD4; isolated male guinea-pig trachea; vs paired control
Experimental: LTD4 antagonism in guinea-pig trachea
Antagonism for LTD4 was determined in isolated male guinea-pig (300-400 g) trachea prepared as spiral strip. Tracheal preparations were suspended under 1 g tension in 10 ml organ baths containing 5 μM of indomethacin and they were incubated for 1 hour prior to used. Contractile responses to LTD4 (2×10^8 g/ml) were obtained after the maximal response to histamine (10^4 M). Test compounds dissolved in 100% dimethyl sulfoxide were added to the organ baths (final concentration of 10^6 g/ml) 30 min prior to LTD4 addition, and then contractile responses to LTD4 were compared with those of control which was obtained from a paired trachea in the absence of test compounds. LTD-induced contractions were expressed as a percentage of the maximal response to histamine. The antagonism was determined as follows:
Antagonism (%)=(1.0-% contraction in test/% contraction in […]

Point of comparison: `CCn1ncc(NCc2c(OC)ccc3ccccc23)c(Br)c1=O` [compound 25], inhibition at 1 µg/mL 50%. Against it:
- COc1ccc(CNc2cn[nH]c(=O)c2Cl)c2ccccc12 [Compound No. 5, 4-Chloro-5-(4-methoxy-1-naphthylmethylamino)-3(2H)pyridazinone] — higher, 79%
- COc1ccc(CNc2cn[nH]c(=O)c2Br)c2ccccc12 [Compound No. 16] — higher, 74%
- CCn1ncc(NCc2ccco2)c(Br)c1=O [Compound No. 22, 2Ethyl-4-bromo-5-(2-furanylmethylamino)-3(2H)pyridazinone] — lower, 39%
- COc1ccc(CNc2c([N+](=O)[O-])n[nH]c(=O)c2Cl)c2ccccc12 [Compound No. 30, 4-Chloro-5-(4-methoxy-1-naphthylmethylamino)-6-nitro-3(2H)pyridazinone] — the same, 50%
- CCOc1n[nH]c(=O)c(Cl)c1NCc1ccc(OC)c2ccccc12 [Compound No. 31] — higher, 95%
- COc1ccc(CNc2c(OC(C)C)n[nH]c(=O)c2Cl)c2ccccc12 [Compound No. 32, 4-Chloro-5-(4-methoxy-1-naphthylmethylamino)-6-i-propoxy-3(2H)pyridazinone] — the same, 50%
- COc1ccc(CNc2c(Cl)n[nH]c(=O)c2Cl)c2ccccc12 [Compound No. 34, 4,6-Dichloro-5-(4-methoxy-1-naphthylmethylamino)-3(2H)pyridazinone] — higher, 99%
- CCCc1c(OCC(O)COc2ccc3c(=O)cc(C(=O)O)oc3c2CCC)ccc(C(C)=O)c1O (centres unmarked) [FPL-55712, reference compound] — higher, 94%
- CCn1ncc(NCc2cccc3ccccc23)c(Br)c1=O [compound 23] — higher, 57%
- CCn1ncc(NCc2ccc3ccccc3c2)c(Br)c1=O [compound 24] — higher, 67%
- CCn1nc(OC)c(NCc2ccc(OC)c3ccccc23)c(Cl)c1=O [compound 38] — lower, 43%
- CCCCOc1n[nH]c(=O)c(Cl)c1NCc1ccc(Cl)nc1 [compound 57] — higher, 69%
- CCCCCCOc1n[nH]c(=O)c(Cl)c1NCc1cccnc1 [compound 60] — higher, 96%

Source: patent US5011839A, “3(2H)pyridazinones for antagonistic agent against srs-a” (Nissan Chemical Industries Ltd., priority 1988, dated 1991)
